Like-named read-outs stand apart in the source and are kept apart here.
How the values were obtained:
PRMT5 [1] = biological target: T1, PRMT5 (Homo sapiens, UniProt O14744); assay: PRMT5 biochemical IC50 assay with SAM as cofactor; conditions: PRMT5, SAM as cofactor; read-out: SAM IC50
T1 construct: purchased Viva (custom protein)

PRMT5 [2] = biological target: T1, PRMT5; assay: PRMT5 biochemical IC50 assay with no cofactor; conditions: PRMT5, no cofactor; read-out: No Cofactor/rel IC50
Source text: Table 1 indicates IC50 values (μM) against PRMT5 for exemplary compounds in the presence of SAM as cofactor, with no cofactor, and with MTA as cofactor, respectively (columns 4-6). […] Ki values can be calculated from the IC50 values as described in the Examples section. As detailed in the Examples section, for the assay performed in the presence of SAM, IC50=Ki×1.5 (Ki=IC50/1.5).

PRMT5 [3] = biological target: T1, PRMT5; assay: PRMT5 biochemical IC50 assay with MTA as cofactor; conditions: PRMT5, MTA as cofactor; read-out: MTA IC50
[4] = system: HAP1 MTAP-intact cell line; assay: SDMA in-cell western assay, HAP1 MTAP-intact; type: cell-based; conditions: HAP1 MTAP-intact, read-out: MTAP HAP1 intact IC50
Outline: (§1)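 Compounds were tested in HAP1 cells differing only in MTAP status (endogenous expression versus null). Cellular SDMA levels were then measured by in-cell western, giving an IC50 in each background.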

[5] = system: HAP1 MTAP-deleted cell line; assay: SDMA in-cell western assay, HAP1 MTAP-deleted; type: cell-based; conditions: for MTAP intact/deleted ratio: IC50 ratio HAP1 MTAP-intact / HAP1 MTAP-deleted; for IC50: HAP1 MTAP-deleted, read-out: HAP1 MTAP deleted IC50
Outline: as §1

[6] = system: HAP1 MTAP-deleted cell line; assay: Viability assay, MTAP-deleted cell line; type: cell-based; conditions: MTAP-deleted cell line, read-out: HAP1 MTAP deleted viability
Source text: Table 1 additionally indicates IC50 values in a viability assay for the MTAP-deleted cell line (column 10), indicating the effect of treatment with compound on cell survival.

[7] = Homo sapiens, HAP1, SDMA in-cell western
[8] = Homo sapiens, HAP1, viability assay

T1 sequence (O14744 whole entry): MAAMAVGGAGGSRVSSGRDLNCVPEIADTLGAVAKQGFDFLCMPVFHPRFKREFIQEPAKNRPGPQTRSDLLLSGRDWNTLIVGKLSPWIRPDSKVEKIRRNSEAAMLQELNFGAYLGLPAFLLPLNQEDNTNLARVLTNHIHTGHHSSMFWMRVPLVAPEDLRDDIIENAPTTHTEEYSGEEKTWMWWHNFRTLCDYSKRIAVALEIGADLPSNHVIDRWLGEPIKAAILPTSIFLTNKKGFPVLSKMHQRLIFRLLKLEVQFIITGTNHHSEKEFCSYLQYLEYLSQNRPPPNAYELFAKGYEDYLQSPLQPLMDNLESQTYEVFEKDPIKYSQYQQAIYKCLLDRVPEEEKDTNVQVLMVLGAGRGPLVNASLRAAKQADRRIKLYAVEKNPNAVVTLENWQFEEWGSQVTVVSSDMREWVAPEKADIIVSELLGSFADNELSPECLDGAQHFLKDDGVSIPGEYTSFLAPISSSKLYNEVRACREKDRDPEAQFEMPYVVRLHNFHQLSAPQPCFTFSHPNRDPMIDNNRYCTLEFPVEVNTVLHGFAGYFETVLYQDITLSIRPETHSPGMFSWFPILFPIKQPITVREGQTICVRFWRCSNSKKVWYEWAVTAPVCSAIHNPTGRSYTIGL
T1 sequence (Q9BQA1 whole entry partner): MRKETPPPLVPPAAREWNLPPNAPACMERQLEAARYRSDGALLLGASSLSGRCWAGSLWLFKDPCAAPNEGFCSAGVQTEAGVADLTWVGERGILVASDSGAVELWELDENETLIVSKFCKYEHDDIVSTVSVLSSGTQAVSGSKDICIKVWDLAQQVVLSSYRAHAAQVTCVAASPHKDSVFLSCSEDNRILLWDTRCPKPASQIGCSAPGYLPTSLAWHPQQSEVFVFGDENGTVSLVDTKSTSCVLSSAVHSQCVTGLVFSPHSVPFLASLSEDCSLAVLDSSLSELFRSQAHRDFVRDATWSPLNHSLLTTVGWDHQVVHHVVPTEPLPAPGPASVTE

Compound	IC50 (PRMT5 [1]) [nM]	IC50 (PRMT5 [2]) [nM]	IC50 (PRMT5 [3]) [nM]	IC50 [4, 7] [nM]	MTAP intact/deleted ratio ([5]; SDMA in-cell western)	IC50 ([5]; SDMA in-cell western) [nM]	IC50 [6, 8] [nM]	IC50 [5, 7] [nM]	IC50 ([4]; SDMA in-cell western) [nM]	IC50 ([6]; viability assay) [nM]
COc1ncc(NC(=O)C(=O)N2CCCCC2c2ccccc2)cc1C(N)=O (single isomer, unassigned) [Compound 199, 2-methoxy-5-(2-oxo-2-(2-phenylpiperidin-1-yl)acetamido)nicotinamide]	> 500	> 500	50 to 500	> 1000	C (an IC50 ratio of less than 3 fold)	> 1000	> 10000			
Cc1ncc(NC(=O)C(=O)N2C[C@@H](C)CC[C@@H]2c2ccccc2)cc1C(N)=O (single isomer, unassigned) [Compound 200]	50 to 500	50 to 500	< 50	> 1000	A (an IC50 ratio greater than or equal to 10 fold)		1000 to 10000	< 100		
C[C@@H]1CC[C@@H](c2cccs2)N(C(=O)C(=O)Nc2cncc(C(N)=O)c2)C1 (single isomer, unassigned) [Compound 201]	> 500	> 500	> 500	> 1000	C (an IC50 ratio of less than 3 fold)		> 10000	> 1000		
COc1ncc(NC(=O)C(=O)N2CCCCC2c2ccccc2)cc1C(N)=O (single isomer, unassigned) [Compound 202, 2-methoxy-5-(2-oxo-2-(2-phenylpiperidin-1-yl)acetamido)nicotinamide]	50 to 500	50 to 500	< 50		A (an IC50 ratio greater than or equal to 10 fold)	100 to 1000			> 1000	> 10000
Cc1cc(NC(=O)C(=O)N2CCCC[C@@H]2C(C)C)cnc1N (single isomer, unassigned) [Compound 204]	> 500	> 500	50 to 500	> 1000	C (an IC50 ratio of less than 3 fold)		> 10000	> 1000		
NC(=O)c1cncc(NC(=O)C(=O)N2C[C@@H]3CC[C@@H](C3)[C@@H]2c2ccccc2)c1 (single isomer, unassigned) [Compound 205]	50 to 500	> 500	50 to 500	> 1000	B (an IC50 ratio greater than or equal to 3 fold but lower than 10 fold)		> 10000	> 1000		
C[C@H]1CC[C@H](C2CCC2)N(C(=O)C(=O)Nc2cncc(C(N)=O)c2)C1 (single isomer, unassigned) [Compound 211]	50 to 500	50 to 500	< 50	> 1000	A (an IC50 ratio greater than or equal to 10 fold)		1000 to 10000	< 100		
C[C@@H]1CC[C@@H](C2CCC2)N(C(=O)C(=O)Nc2cncc(C(N)=O)c2)C1 (single isomer, unassigned) [Compound 216]	> 500	> 500	> 500	> 1000	C (an IC50 ratio of less than 3 fold)		> 10000	> 1000		
Cc1cccc([C@H]2CC[C@H](C)CN2C(=O)C(=O)Nc2cncc(C(N)=O)c2)c1 (single isomer, unassigned) [Compound 219]	50 to 500	< 50	< 50	> 1000	A (an IC50 ratio greater than or equal to 10 fold)		1000 to 10000	< 100		
Cc1cccc([C@@H]2CC[C@@H](C)CN2C(=O)C(=O)Nc2cncc(C(N)=O)c2)c1 (single isomer, unassigned) [Compound 227]	> 500	> 500	> 500	> 1000	C (an IC50 ratio of less than 3 fold)		> 10000	> 1000		
C[C@@H]1CC[C@@H]2CCCC[C@@H]2N1C(=O)C(=O)Nc1cncc(C(N)=O)c1 (single isomer, unassigned) [Compound 236]	> 500	> 500	50 to 500	> 1000	B (an IC50 ratio greater than or equal to 3 fold but lower than 10 fold)		> 10000	> 1000		
C[C@H]1CC[C@H]2CCCC[C@H]2N1C(=O)C(=O)Nc1cncc(C(N)=O)c1 (single isomer, unassigned) [Compound 245]	50 to 500	50 to 500	< 50	> 1000	A (an IC50 ratio greater than or equal to 10 fold)		1000 to 10000	100 to 1000		
Cc1cc(NC(=O)C(=O)N2C[C@H](C)CC[C@H]2c2ccccc2)cnc1C (single isomer, unassigned) [Compound 254]	< 50	50 to 500	< 50	> 1000	A (an IC50 ratio greater than or equal to 10 fold)		1000 to 10000	100 to 1000		
Cc1cc(NC(=O)C(=O)N2C[C@@H](C)CC[C@@H]2c2ccccc2)cnc1C (single isomer, unassigned) [Compound 258]	> 500	> 500	> 500	> 1000	C (an IC50 ratio of less than 3 fold)		> 10000	> 1000		
Cc1cc(NC(=O)C(=O)N2C[C@H](C)CC[C@H]2[C@H]2CC[C@H](C(C)(C)C)CC2)cnc1N (single isomer, unassigned) [Compound 260]	50 to 500	50 to 500	< 50	> 1000	C (an IC50 ratio of less than 3 fold)		1000 to 10000	100 to 1000		
C[C@H]1C[C@H](C)[C@H](c2ccccc2)N(C(=O)C(=O)Nc2cncc(C(N)=O)c2)C1 (single isomer, unassigned) [Compound 267, 5-(2-(3,5-dimethyl-2-phenylpiperidin-1-yl)-2-oxoacetamido)nicotinamide]	< 50	50 to 500	< 50	> 1000	A (an IC50 ratio greater than or equal to 10 fold)		1000 to 10000	< 100		
C[C@H]1CCC[C@@H](c2ccccc2)N1C(=O)C(=O)Nc1cncc(C(N)=O)c1 (single isomer, unassigned) [Compound 274]	50 to 500	50 to 500	< 50	> 1000	A (an IC50 ratio greater than or equal to 10 fold)		1000 to 10000	100 to 1000		
CC(=O)N[C@H]1CC[C@@H]([C@@H]2CC[C@@H](C)CN2C(=O)C(=O)Nc2cnc(N)c(C)c2)CC1 (single isomer, unassigned) [Compound 281]	> 500	> 500	50 to 500	> 1000	A (an IC50 ratio greater than or equal to 10 fold)		> 10000	100 to 1000		
Cc1cc(NC(=O)C(=O)N2C[C@H](C)CC[C@H]2c2cccc(Cl)c2)cnc1N (single isomer, unassigned) [Compound 283]	> 500	> 500	> 500	> 1000	B (an IC50 ratio greater than or equal to 3 fold but lower than 10 fold)		> 10000	> 1000		

Source: US11999727B2 (Tango Therapeutics, Inc., priority 2020, dated 2024)
